Experimental data from patent US20120238511A1, “2-DEOXY-D-GLUCOSE FORMULATIONS FOR PREVENTION OR TREATMENT OF NEURODEGENERATIVE DISEASES” (University of Southern California, priority 2011, published 2012).

Tested on: triple transgenic AD (3×Tg-AD) mouse model
Experiment: 2-DG diet in triple transgenic Alzheimer's mouse model
Format: in vivo
Details: low-density gene array (LDA array) analyses
Method: It has been shown that mitochondrial bioenergetic deficits precede Alzheimer's disease (AD) pathology in the triple transgenic AD (3×Tg-AD) mouse model. […] In the current study, the impact of 2-deoxy-D-glucose (2-DG), a compound known to regulate glucose metabolism and induce ketogenesis, on both brain bioenergetics and AD pathology was evaluated.
3×Tg-AD female at 6 month were fed with either a regular diet (AIN-93G) or diet containing 0.04% 2-DG for 7 weeks.

With `OCC1OC(O)CC(O)C1O` [2-DG, 2-deoxy-D-glucose] the Tau phosphorylation was “reduced” and the amyloid production was “decreased”.
